Columns and labels:
[1] = Solubility test, 1% DMSO addition, artificial intestinal juice pH 6.8; format: physicochemical; conditions: artificial intestinal juice with 1% DMSO, fassgf or other biorelevant, kinetic from dmso stock; pH 6.8, 1% DMSO addition, 16 hours at 25° C.
Method: The solubility of each compound was determined under 1% DMSO addition conditions. A 10 mmol/L solution of the compound was prepared with DMSO, and 6 μL of the solution was added to 594 μL of an artificial intestinal juice (water and a 118 mL solution of 0.2 mol/L NaOH reagent are added to 250 mL of 0.2 mol/L potassium dihydrogen phosphate reagent to reach 1000 mL) with a pH of 6.8. The mixture is left standing for 16 hours at 25° C., and the mixture is vacuum-filtered. The filtrate is two-fold diluted with methanol/water=1/1 (v/v), and the compound concentration in the filtrate is measured with HPLC or LC/MS/MS by the absolute calibration method.

[2] = target: T1, CYP1A2 (Homo sapiens, UniProt P05177); test: CYP inhibition assay, 7-ethoxyresorufin O-deethylation; format: in vitro ADME; conditions: pooled human liver microsomes, probe 7-ethoxyresorufin (O-deethylation), 0.5 μmol/L, pooled human hepatic microsome
T1 construct: enzyme, pooled human hepatic microsome 0.2 mg protein/mL; from tissue; host or cells: pooled human liver microsomes
T1 sequence (P05177 1-516): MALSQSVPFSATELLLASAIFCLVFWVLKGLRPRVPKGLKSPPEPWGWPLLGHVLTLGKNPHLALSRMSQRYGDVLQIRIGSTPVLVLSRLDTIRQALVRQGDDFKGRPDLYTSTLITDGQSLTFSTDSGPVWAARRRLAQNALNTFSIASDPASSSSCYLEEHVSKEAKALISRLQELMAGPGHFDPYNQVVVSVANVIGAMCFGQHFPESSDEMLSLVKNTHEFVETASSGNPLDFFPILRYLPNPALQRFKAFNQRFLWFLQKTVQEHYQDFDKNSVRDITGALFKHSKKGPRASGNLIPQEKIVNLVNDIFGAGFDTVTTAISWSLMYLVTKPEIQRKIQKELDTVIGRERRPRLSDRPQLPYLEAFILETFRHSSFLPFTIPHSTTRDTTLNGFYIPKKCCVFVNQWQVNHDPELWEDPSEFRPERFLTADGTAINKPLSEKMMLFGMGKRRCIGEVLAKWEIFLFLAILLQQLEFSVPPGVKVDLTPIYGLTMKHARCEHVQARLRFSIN
Method: (§1) Using commercially available pooled human hepatic microsome, and employing, as markers, 7-ethoxyresorufin O-deethylation (CYP1A2), tolbutamide methyl-hydroxylation (CYP2C9), mephenytoin 4′-hydroxylation (CYP2C19), dextromethorphan O-demethylation (CYP2D6), and terfenedine hydroxylation (CYP3A4) as typical substrate metabolism reactions of human main five CYP enzyme forms (CYP1A2, 2C9, 2C19, 2D6, 3A4), an inhibitory degree of each metabolite production amount by a test compound was assessed.
(§2) The reaction conditions were as follows: substrate, 0.5 μmol/L ethoxyresorufin (CYP1A2), 100 μmol/L tolbutamide (CYP2C9), 50 μmol/L S-mephenytoin (CYP2C19), 5 μmol/L dextromethorphan (CYP2D6), 1 μmol/L terfenedine (CYP3A4); reaction time, 15 minutes; reaction temperature, 37° C.; enzyme, pooled human hepatic microsome 0.2 mg protein/mL; test drug concentration, 1, 5, 10, 20 μmol/L (four points).
(§3) Each five kinds of substrates, human hepatic microsome, and a test drug in 50 mmol/L Hepes buffer as a reaction solution was added to a 96-well plate as the composition as described above, NADPH, as a cofactor was added to initiate metabolism reactions as markers and, after the incubation at 37° C. for 15 minutes, a methanol/acetonitrile=1/1 (v/v) solution was added to stop the reaction. After the centrifugation at 3000 rpm for 15 minutes, resorufin (CYP1A2 metabolite) in the supernatant was quantified by a fluorescent multilabel counter and tolbutamide hydroxide (CYP2C9 metabolite), mephenytoin 4′ hydroxide (CYP2C19 metabolite), dextrorphan (CYP2D6 metabolite), and terfenadine alcohol (CYP3A4 metabolite) were quantified by LC/MS/MS.
(§4) A reaction system containing only DMSO which is a solvent for dissolving a drug was adopted as a control (100%), and the remaining activity (%) was calculated, then IC50 was calculated by reverse presumption with a logistic model using a concentration and an inhibition rate.

[3] = target: T2, CYP2C19 (Homo sapiens, UniProt P33261); test: CYP inhibition assay, mephenytoin 4'-hydroxylation; format: in vitro ADME; conditions: pooled human liver microsomes, probe S-mephenytoin (4'-hydroxylation), 50 μmol/L, pooled human hepatic microsome
T2 construct: enzyme, pooled human hepatic microsome 0.2 mg protein/mL; from tissue; host or cells: pooled human liver microsomes
T2 sequence (P33261 whole entry): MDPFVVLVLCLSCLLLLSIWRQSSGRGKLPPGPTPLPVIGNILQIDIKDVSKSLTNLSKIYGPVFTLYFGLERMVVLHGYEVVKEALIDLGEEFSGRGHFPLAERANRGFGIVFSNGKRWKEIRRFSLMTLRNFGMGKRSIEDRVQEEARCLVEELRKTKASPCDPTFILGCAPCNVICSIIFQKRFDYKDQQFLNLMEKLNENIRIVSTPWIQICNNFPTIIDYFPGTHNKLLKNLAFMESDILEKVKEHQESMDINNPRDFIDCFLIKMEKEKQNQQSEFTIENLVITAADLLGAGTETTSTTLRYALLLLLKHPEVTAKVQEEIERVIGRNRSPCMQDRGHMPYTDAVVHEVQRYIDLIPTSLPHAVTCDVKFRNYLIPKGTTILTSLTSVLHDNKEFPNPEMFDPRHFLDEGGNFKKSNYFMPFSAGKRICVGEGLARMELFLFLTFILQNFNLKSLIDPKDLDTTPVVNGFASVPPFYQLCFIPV
Method: as §1, §2, §3, §4

[4] = target: T3, CYP2D6 (Homo sapiens, UniProt P10635); test: CYP inhibition assay, dextromethorphan O-demethylation; format: in vitro ADME; conditions: pooled human liver microsomes, probe dextromethorphan (O-demethylation), 5 μmol/L, pooled human hepatic microsome
T3 construct: enzyme, pooled human hepatic microsome 0.2 mg protein/mL; from tissue; host or cells: pooled human liver microsomes
T3 sequence (P10635 whole entry): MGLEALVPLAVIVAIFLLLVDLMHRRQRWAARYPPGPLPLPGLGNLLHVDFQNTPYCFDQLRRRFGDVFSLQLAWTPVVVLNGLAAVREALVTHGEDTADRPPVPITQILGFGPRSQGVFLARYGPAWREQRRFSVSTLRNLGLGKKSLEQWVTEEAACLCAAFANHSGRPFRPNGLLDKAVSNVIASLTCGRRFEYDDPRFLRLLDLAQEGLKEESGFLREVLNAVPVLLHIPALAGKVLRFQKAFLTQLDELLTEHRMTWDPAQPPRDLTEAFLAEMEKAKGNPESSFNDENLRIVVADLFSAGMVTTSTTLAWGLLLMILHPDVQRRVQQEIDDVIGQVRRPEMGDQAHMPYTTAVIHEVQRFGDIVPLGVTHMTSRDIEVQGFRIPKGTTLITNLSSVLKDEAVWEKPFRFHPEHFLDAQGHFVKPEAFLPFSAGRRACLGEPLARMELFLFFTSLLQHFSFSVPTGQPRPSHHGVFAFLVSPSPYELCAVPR
Method: as §1, §2, §3, §4

[5] = target: T4, CYP3A4 (Homo sapiens, UniProt P08684); test: CYP inhibition assay, terfenedine hydroxylation; format: in vitro ADME; conditions: pooled human liver microsomes, probe terfenedine (hydroxylation), 1 μmol/L, pooled human hepatic microsome
T4 construct: enzyme, pooled human hepatic microsome 0.2 mg protein/mL; from tissue; host or cells: pooled human liver microsomes
T4 sequence (P08684 whole entry): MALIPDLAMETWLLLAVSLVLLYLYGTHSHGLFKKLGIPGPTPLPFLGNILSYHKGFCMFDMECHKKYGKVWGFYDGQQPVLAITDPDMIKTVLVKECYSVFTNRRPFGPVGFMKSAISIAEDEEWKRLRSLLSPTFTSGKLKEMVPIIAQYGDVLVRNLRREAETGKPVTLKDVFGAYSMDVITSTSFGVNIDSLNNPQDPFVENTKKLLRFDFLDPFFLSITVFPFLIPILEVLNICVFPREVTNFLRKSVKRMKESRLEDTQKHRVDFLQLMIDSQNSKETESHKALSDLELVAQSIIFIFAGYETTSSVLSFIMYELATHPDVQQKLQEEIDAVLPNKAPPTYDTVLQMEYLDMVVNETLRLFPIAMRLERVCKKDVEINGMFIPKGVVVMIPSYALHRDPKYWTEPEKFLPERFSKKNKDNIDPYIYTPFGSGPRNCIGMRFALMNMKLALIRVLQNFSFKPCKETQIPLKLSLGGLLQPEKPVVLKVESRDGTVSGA
Method: as §1, §2, §3, §4

[6] = system: HIV (HTLV-III B strain); test: HIV replication inhibition assay (MTT, MT-4 cells); format: cell-based; conditions: Human immunodeficiency virus 1, MT4, 96 h, four days culture, concentration at which cell cytotoxicity by virus is inhibited 50%
Method: HIV (HTLV-III B strain) persistent infected human T cell strain Molt-4 clone 8 was cultured in 10% Fetal Bovine Serum-containing RPMI-1640 medium and the supernatant was filtrated, then the virus titer was measured and the solution was stored at −80° C. Each anti-human immunodeficiency virus active substance was diluted with the above cultured medium to the designated concentration, which was dispensed into 96 well micro plate by 50 μL. Next, a MT-4 cell suspended liquid was dispensed by 100 μL (2.5×10^4 cells), then the above HIV-containing supernatant diluted with the above cultured medium was added thereto by 50 μL (60 pfu (plaque forming unit)).
The obtained mixture was cultured at 37° C. in CO2 incubator for four days, then 3-(4,5-dimehylthiazole-2-yl)-2,5-diphenyltetrazolynium bromide (MTT) 5 mg/mL in PBS was added to each well by 30 μL, followed by 1 hr-cultivation. In this step, as formazan was precipitated by reduction of MTT in living cells, the cell supernatant was removed from all well by 150 μL, then a 150 μL of solution (10% Triton X-100 and […]) was added thereto, followed by shaking with a plate mixer, to elute formazan. The formazan was measured with a microreader at OD: 560 nm and 690 nm (wavelength) and the result was compared with the reference. EC50 means the compound concentration at which cell cytotoxicity by virus is inhibited 50%.

[7] = system: Salmonella typhimurium TA98 strain, TA100 strain; format: cell-based; conditions: Salmonella typhimurium TA98, TA100, non-metabolism and metabolism activating condition
Method: The mutagenicity of the compound of the present invention was assayed.
20 μL of freezing-stored rat typhoid bacillus (Salmonella typhimurium TA98 strain, TA100 strain) was inoculated on 10 mL of a liquid nutrient medium (2.5% Oxoid nutrient broth No. 2), and this was cultured before shaking at 37° C. for 10 hours. 9 mL of a bacterial solution of the TA98 strain was centrifuged (2000×g, 10 minutes) to remove a culturing solution. The bacteria was suspended in F buffer (K2HPO4: 3.5 g/L, KH2PO4: 1 g/L, (NH4)2SO4: 1 g/L, trisodium citrate dehydrate: 0.25 g/L, MgSO4.7H2O: 0.1 g/L), and the suspension was added to 110 mL of an Exposure medium (Micro F buffer containing Biotin: 8 μg/mL, histidine: 0.2 μg/mL, glucose: 8 mg/mL). The TA100 strain was added to 120 mL of the Exposure medium per 3.16 mL of the bacterial solution to prepare a test bacterial solution. […] of a test substance DMSO solution (several stage dilution from maximum dose 50 mg/mL at 2- to 3-fold ratio), DMSO as a negative control, 50 μg/mL of 4-nitroquinoline-1-oxide DMSO solution for the TA98 strain, 0.25 μg/mL of 2-(2-furyl)-3-(5-nitro-2-furyl)acrylamide DMSO solution for the TA100 strain each under the non-metabolism activating condition, 40 μg/mL of 2-aminoanthracene DMSO solution for the TA98 strain, 20 μg/mL of 2-aminoanthracene DMSO solution for the TA100 strain each under the metabolism activating condition all as a positive control, and 588 μL of the test bacterial solution (a mixed solution of 498 μL of the test bacterial solution and 90 μL of S9 mix under the metabolism activating condition) were mixed, and this was shaking-cultured at 37° C. for 90 minutes. […] Since a well containing a bacterium which has obtained the proliferation ability by mutation of an amino acid (histidine) synthesizing enzyme gene turns from purple to yellow due to a pH change, the bacterium proliferation well which has turned to yellow in 48 wells per dose is counted, and was assessed by comparing with a negative control group. […]

Row | SMILES | solubility at 16 h [1] [µM] | IC50 at 15 min [2] [µM] | IC50 at 15 min [3] [µM] | IC50 at 15 min [4] [µM] | IC50 at 15 min [5] [µM] | EC50 [6] [µM] | mutagenicity [7]
1 | COC(=O)Nc1cc(C(OC(C)(C)C)C(=O)O)c(-c2ccc(C)c(C)c2)c(C)c1-c1ccc(C)c(C)c1 (stereo not drawn) [Compound I-5] |  | ≥ 20 | ≥ 20 | ≥ 20 | ≥ 20 |  | 
2 | Cc1ccc(-c2c(C(OC(C)(C)C)C(=O)O)cc(N(C)C(=O)C(C)C)c(-c3ccc(C)c(C)c3)c2C)cc1C (stereo not drawn) [Compound I-9] |  | ≥ 20 | ≥ 20 | ≥ 20 | ≥ 20 |  | 
3 | CCNC(=O)Nc1c(C)c(C(OC(C)(C)C)C(=O)O)c(-c2ccc(C)c(C)c2)c(C)c1-c1ccc(C)c(C)c1 (stereo not drawn) [Compound I-11] |  |  |  |  |  | 0.021 | negative
4 | Cc1ccc(-c2c(C)c(-c3ccc(C)c(C)c3)c(C(OC(C)(C)C)C(=O)O)c(C)c2NS(C)(=O)=O)cc1C (stereo not drawn) [Compound I-12] |  |  |  |  |  | 0.0064 | negative

More lines, main results first:

Row | solubility at 16 h [1] [µM] | IC50 at 15 min [2] [µM] | IC50 at 15 min [3] [µM] | IC50 at 15 min [4] [µM] | IC50 at 15 min [5] [µM] | SMILES | EC50 [6] [µM] | mutagenicity [7]
5 | ≥ 50 | ≥ 20 | ≥ 20 | ≥ 20 | ≥ 20 | Cc1ccc(-c2c(N)cc(C(OC(C)(C)C)C(=O)O)c(-c3ccc(C)c(C)c3)c2C)cc1C (stereo not drawn) [Compound I-2] |  | 
6 | ≥ 50 | ≥ 20 | ≥ 20 | ≥ 20 | ≥ 20 | CC(=O)Nc1cc(C(OC(C)(C)C)C(=O)O)c(-c2ccc(C)c(C)c2)c(C)c1-c1ccc(C)c(C)c1 (stereo not drawn) [Compound I-3] |  | 
7 | ≥ 50 | ≥ 20 | ≥ 20 | ≥ 20 | ≥ 20 | CC(=O)Nc1c(Br)c(C(OC(C)(C)C)C(=O)O)c(-c2ccc(C)c(C)c2)c(C)c1-c1ccc(C)c(C)c1 (stereo not drawn) [Compound I-4] | 0.013 | 
8 |  | ≥ 20 | ≥ 20 | ≥ 20 | ≥ 20 | Cc1ccc(-c2c(C)c(-c3ccc(C)c(C)c3)c(C(OC(C)(C)C)C(=O)O)c(C)c2N)cc1C (stereo not drawn) [Compound I-7] | 0.018 | 
9 |  | ≥ 20 | ≥ 20 | ≥ 20 | ≥ 20 | CC(=O)N(C)c1c(C)c(C(OC(C)(C)C)C(=O)O)c(-c2ccc(C)c(C)c2)c(C)c1-c1ccc(C)c(C)c1 (stereo not drawn) [Compound I-8] |  | 
10 | ≥ 50 | ≥ 20 | ≥ 20 | ≥ 20 | ≥ 20 | Cc1ccc(-c2c(NC(=O)C(C)C)cc(C(OC(C)(C)C)C(=O)O)c(-c3ccc(C)c(C)c3)c2C)cc1C (stereo not drawn) [Compound I-10] |  | 

Reference: US9199959B2, “HIV replication inhibitor” (Shionogi & Co., Ltd., priority 2011, dated 2015)
